# According to US20230053864A1, “Methods for Identifying Modulators of G Protein-Coupled Receptors” (University of Miami, priority 2019, published 2023):
# Values joined by “and” are separate entries in the source; they are usually repeats but may differ in a detail not shown here. Equal entries are not always repeated. “Also recorded” adds a separate entry of the source.
# How the values were obtained:
# [1] = test system: 300-plex of GPCR-Gα reporter strains; assay: dCyFIRplex FACS sorting of agonist-treated 300-plex; format: cell-based, Saccharomyces cerevisiae; conditions: following agonist treatment
# Procedure: dCyFIRplex protocol. […] 10× ligand/vehicle stocks were added to individual wells of a DeepWell block. The consolidated 300-plex or control strains were then added to each well and grown in the presence of ligand/vehicle overnight, so that each culture would reach an OD=4.0 before dCyFIRplex profiling. Samples were washed with sterile ddH2O and normalized to an OD=2.0 in SCD LoFo pH=7.0. Tracer cells were added to each sample at a 1:301 ratio. The final mixture was then transferred into a glass sample tube (USA Scientific; 1450-2810) and used for cell sorting. A BD FACSAria-II cell sorter was used for all dCyFIRplex experiments to assess mTq2 (405 nm excitation, 450/50 nm emission) and mRuby3 fluorescence (535 nm excitation, 610/20 nm emission). A gating strategy was set using the three control samples (DI P1 mTq2, individual Gα reporter strains lacking an integrated receptor, and DI P1 mRuby3) such that tracer cells and any cell expressing mTq2 was sorted into a 14 mL collection tube (USA Scientific; 1485-2810) containing 500 μL YPD. Samples treated with water or 500 μM adenosine (well-characterized using dCyFIRscreen, inexpensive, and water-soluble) were used to build a standard curve measuring total events in the mRuby3 and mTq2 positive gates. The standard curve from a water-treated 300-plex was used to determine the number of tracer events that would correspond to 15,000 events in the mTq2 gate for a water-treated 300-plex. Each sample was sorted until the standardized tracer count was reached. Sorted cells were enriched by outgrowth in 5 mL YPD at 30° C. with shaking (200 rpm) for 18 hours. Cells were harvested by centrifugation at 3,000×g for 5 min, and resuspended in 1 mL ddH2O. Cells were either processed immediately for qPCR deconvolution or frozen in 100 μL aliquots for storage at −20° C. The set of samples comparatively deconvoluted by qPCR and NanoString methods were derived from aliquots of the same dCyFIRplex experiments. […]
# ADRA2B = target: T1, ADRA2B (Homo sapiens, UniProt P18089); assay: dCyFIRscreen profiling and titrations in yeast GPCR-Gα reporter strains; format: cell-based
# T1 construct: expressed in transfected cells; host or cells: Saccharomyces cerevisiae BY4741-derived GPCR-Gα reporter strains, X-2 landing pad
# T1 sequence (P18089 1-450): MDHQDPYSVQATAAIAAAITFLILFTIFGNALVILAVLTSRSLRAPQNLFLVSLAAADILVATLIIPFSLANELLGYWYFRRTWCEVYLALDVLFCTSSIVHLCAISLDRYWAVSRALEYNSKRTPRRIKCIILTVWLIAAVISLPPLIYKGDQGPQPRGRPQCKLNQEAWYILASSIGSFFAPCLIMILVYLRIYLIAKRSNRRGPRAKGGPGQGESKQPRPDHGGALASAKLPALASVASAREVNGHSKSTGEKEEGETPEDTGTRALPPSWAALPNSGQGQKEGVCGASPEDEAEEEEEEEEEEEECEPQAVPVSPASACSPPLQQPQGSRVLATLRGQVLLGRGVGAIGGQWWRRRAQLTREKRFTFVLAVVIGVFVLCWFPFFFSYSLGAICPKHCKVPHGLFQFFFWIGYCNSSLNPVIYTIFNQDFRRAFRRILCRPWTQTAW
# Procedure: dCyFIRscreen protocol. […] Cells were normalized to an OD of 0.1 in SCD LoFo pH=7.0 using a Biomek NXp liquid-handling robot. […] 36 μL normalized cells were distributed to each well containing the appropriate 10× ligand/vehicle. Plates were sealed with a breathable cover (Diversified Biotech; BERM-2000) and incubated at 30° C. […] Absorbance readings were also collected after 18 hours using the same instrument (22 flashes/well, excitation filter: 600 nm).
# Titration Analyses. All titration curves were analyzed using Prism software and the pharmacological fitting function log(agonist) vs. response—Variable slope (four parameters) (GraphPad Software, San Diego, USA).
# GPR35 = target: T2, GPR35 (Homo sapiens, UniProt Q9HC97); assay: as above; format: cell-based
# T2 construct: expressed in transfected cells; host or cells: Saccharomyces cerevisiae BY4741-derived GPCR-Gα reporter strains, X-2 landing pad
# Procedure: (§1) Individual Gα reporter strains were grown in SCD LoFo pH=7.0 at 30° C. to an OD=1.0 in a 2.0 mL 96-well DeepWell block (Greiner; 780271-FD). Cells were normalized to an OD of 0.1 in SCD LoFo pH=7.0 using a Biomek NXp liquid-handling robot. 10× ligand/vehicle stocks were prepared (see Table 2) and 4 μL were distributed to each well of a 384-well plate (Greiner; 781096) in quadruplicate using a Biomek NXp. 36 μL normalized cells were distributed to each well containing the appropriate 10× ligand/vehicle. Plates were sealed with a breathable cover (Diversified Biotech; BERM-2000) and incubated at 30° C. Fluorescence readings were collected after 18 hours using a plate reader (ClarioStar, BMG LabTech, Offenburg, Germany) (bottom read, 10 flashes/well, excitation filter: 430-10 nm, dichroic filter: LP 458 nm, emission filter: 482-16 nm, gain=1300 (1500 for FIG. 1B.)). Absorbance readings were also collected after 18 hours using the same instrument (22 flashes/well, excitation filter: 600 nm).
# (§2) All titration curves were analyzed using Prism software and the pharmacological fitting function log(agonist) vs. response—Variable slope (four parameters) (GraphPad Software, San Diego, USA).
# HCAR3 = HCAR3 (Homo sapiens, UniProt P49019); assay: as above; format: cell-based; set-up: expressed in transfected cells; conditions: for EC50: titration, yeast GPCR-Gα reporter strain, this study
# Procedure: as §1, §2
# MTNR1B = target: T3, MTNR1B (Homo sapiens, UniProt P49286); assay: dCyFIRscreen profiling in yeast GPCR-Gα reporter strains; format: cell-based
# T3 construct: expressed in transfected cells; host or cells: Saccharomyces cerevisiae BY4741-derived GPCR-Gα reporter strains, X-2 landing pad
# T3 sequence (P49286 1-362): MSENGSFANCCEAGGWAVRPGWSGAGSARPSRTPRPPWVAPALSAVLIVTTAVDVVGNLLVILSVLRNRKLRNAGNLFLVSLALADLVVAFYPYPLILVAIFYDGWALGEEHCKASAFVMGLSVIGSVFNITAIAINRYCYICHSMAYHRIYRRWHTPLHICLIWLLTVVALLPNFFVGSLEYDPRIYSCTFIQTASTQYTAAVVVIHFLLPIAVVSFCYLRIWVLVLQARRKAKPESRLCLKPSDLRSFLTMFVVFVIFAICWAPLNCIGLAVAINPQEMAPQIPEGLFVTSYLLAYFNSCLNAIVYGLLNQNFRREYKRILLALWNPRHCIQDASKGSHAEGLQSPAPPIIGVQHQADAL
# Procedure: as §1, §2
# MTNR1A = target: T4, MTNR1A (Homo sapiens, UniProt P48039); assay: dCyFIRscreen profiling and titrations in yeast GPCR-Gα reporter strains; format: cell-based
# T4 construct: expressed in transfected cells; host or cells: Saccharomyces cerevisiae BY4741-derived GPCR-Gα reporter strains, X-2 landing pad
# Procedure: as §1, §2
# [2] = test system: 20 GPCRs (200 GPCR-Gα strains); assay: control dCyFIRscreen profiles against 20 GPCRs (200 GPCR-Gα strains); format: cell-based, human; conditions: 20 GPCRs incl. all 15 constitutively active receptors
# Procedure: dCyFIRscreen protocol. Individual Gα reporter strains were grown in SCD LoFo pH=7.0 at 30° C. to an OD=1.0 in a 2.0 mL 96-well DeepWell block (Greiner; 780271-FD). Cells were normalized to an OD of 0.1 in SCD LoFo pH=7.0 using a Biomek NXp liquid-handling robot. 10× ligand/vehicle stocks were prepared (see Table 2) and 4 μL were distributed to each well of a 384-well plate (Greiner; 781096) in quadruplicate using a Biomek NXp. 36 μL normalized cells were distributed to each well containing the appropriate 10× ligand/vehicle. Plates were sealed with a breathable cover (Diversified Biotech; BERM-2000) and incubated at 30° C. Fluorescence readings were collected after 18 hours using a plate reader (ClarioStar, BMG LabTech, Offenburg, Germany) (bottom read, 10 flashes/well, excitation filter: 430-10 nm, dichroic filter: LP 458 nm, emission filter: 482-16 nm, gain=1300 (1500 for FIG. 1B.)). Absorbance readings were also collected after 18 hours using the same instrument (22 flashes/well, excitation filter: 600 nm).
# S1PR2 = target: T5, S1PR2 (Homo sapiens, UniProt O95136); assay: dCyFIRscreen profiling and titrations in yeast GPCR-Gα reporter strains; format: cell-based
# T5 construct: expressed in transfected cells; host or cells: Saccharomyces cerevisiae BY4741-derived GPCR-Gα reporter strains, X-2 landing pad
# Procedure: as §1, §2
# S1PR1 = target: T6, S1PR1 (Homo sapiens, UniProt P21453); assay: as above; format: cell-based
# T6 construct: expressed in transfected cells; host or cells: Saccharomyces cerevisiae BY4741-derived GPCR-Gα reporter strains, X-2 landing pad
# Procedure: as §1, §2
# [3] = titration, yeast GPCR-Gα reporter strain
# Sequence of HCAR3 (P49019 whole entry): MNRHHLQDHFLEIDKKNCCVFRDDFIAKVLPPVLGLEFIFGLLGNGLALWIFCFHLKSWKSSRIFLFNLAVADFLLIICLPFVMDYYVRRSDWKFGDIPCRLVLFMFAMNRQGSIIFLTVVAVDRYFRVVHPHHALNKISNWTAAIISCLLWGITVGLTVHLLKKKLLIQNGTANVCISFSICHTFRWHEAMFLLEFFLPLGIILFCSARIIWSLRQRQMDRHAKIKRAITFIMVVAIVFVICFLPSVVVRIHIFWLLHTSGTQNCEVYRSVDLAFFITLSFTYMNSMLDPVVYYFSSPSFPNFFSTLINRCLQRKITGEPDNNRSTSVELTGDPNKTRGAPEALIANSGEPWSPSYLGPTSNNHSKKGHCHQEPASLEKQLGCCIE
# T5 sequence (O95136 whole entry): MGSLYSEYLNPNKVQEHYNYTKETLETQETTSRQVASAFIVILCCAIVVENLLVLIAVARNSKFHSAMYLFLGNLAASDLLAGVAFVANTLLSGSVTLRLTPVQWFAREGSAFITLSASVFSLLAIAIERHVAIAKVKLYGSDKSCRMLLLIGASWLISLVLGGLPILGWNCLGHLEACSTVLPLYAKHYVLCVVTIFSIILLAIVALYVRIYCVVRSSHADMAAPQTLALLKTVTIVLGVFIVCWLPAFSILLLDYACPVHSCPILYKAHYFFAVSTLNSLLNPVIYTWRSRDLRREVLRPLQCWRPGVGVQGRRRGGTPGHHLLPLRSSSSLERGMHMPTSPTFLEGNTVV
# T2 sequence (Q9HC97 whole entry): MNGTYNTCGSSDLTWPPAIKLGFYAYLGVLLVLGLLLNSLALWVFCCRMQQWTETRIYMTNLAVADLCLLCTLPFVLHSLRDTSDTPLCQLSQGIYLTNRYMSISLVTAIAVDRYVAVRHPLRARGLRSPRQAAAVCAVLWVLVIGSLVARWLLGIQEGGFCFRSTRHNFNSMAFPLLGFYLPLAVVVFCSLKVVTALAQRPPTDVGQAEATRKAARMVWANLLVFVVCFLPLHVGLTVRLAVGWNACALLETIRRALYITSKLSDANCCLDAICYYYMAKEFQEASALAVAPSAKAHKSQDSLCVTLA
# T4 sequence (P48039 whole entry): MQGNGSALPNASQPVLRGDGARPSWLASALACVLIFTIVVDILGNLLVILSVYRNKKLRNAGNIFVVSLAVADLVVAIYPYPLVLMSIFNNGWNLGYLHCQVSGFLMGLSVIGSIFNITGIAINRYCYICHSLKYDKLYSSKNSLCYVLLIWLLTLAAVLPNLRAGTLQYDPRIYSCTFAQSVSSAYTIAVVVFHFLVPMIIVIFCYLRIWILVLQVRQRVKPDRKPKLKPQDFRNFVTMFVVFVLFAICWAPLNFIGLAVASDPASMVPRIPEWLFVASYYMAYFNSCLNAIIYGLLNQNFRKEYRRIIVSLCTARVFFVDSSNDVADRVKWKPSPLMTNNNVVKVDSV
# T6 sequence (P21453 whole entry): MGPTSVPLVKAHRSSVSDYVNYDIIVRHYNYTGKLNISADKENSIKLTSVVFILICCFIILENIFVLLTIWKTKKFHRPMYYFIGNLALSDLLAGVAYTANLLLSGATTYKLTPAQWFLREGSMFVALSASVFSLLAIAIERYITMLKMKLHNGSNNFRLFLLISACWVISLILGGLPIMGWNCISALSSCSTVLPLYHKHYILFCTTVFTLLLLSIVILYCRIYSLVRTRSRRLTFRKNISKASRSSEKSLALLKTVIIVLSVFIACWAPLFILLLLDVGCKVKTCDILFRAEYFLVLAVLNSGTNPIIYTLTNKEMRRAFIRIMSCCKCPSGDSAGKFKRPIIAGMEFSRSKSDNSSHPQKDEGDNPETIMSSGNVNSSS
molecule,measurement,setting,value
CCCCCCCCCCCCC/C=C/[C@@H](O)[C@@H](N)COP(=O)(O)O [sphingosine-1-phosphate],"active cell pool, fraction of cell-sorting events for the 300-plex",[1],1.8%
phenylethanolamine [PEOA],"activity at ADRA2B in words (mode of action, potency range)",ADRA2B,nanomolar
"O=C(O)c1cc(=O)c2ccccc2[nH]1 [KYNA, kynurenic acid]","activity at ADRA2B in words (mode of action, potency range)",ADRA2B,micromolar interactions; also recorded: negative allosteric modulator
same,"activity at GPR35 in words (mode of action, potency range)",GPR35,activated
same,EC50,GPR35; [3],795 µM
same,"activity at HCAR3 in words (mode of action, potency range)",HCAR3,micromolar interactions; also recorded: orthosteric agonist
same,fold higher affinity (lower EC50) for HCAR3 compared to GPR35,HCAR3; head-to-head titrations of GPR35 and HCAR3,18 fold and 18.6 fold
same,EC50,HCAR3,41 µM
same,fold lower EC50 at HCAR3 than phenylpropanoic acid,HCAR3; versus literature EC50 of phenylpropanoic acid,5.1 fold
NCCc1c[nH]c2ccc(O)cc12 [serotonin],activity at MTNR1B in words (mode of action),MTNR1B,not find that serotonin agonized
same,"activity at ADRA2B in words (mode of action, potency range)",ADRA2B,micromolar interactions
same,"activity at MTNR1A in words (mode of action, potency range)",MTNR1A,micromolar interactions
same,EC50,MTNR1A; [3],60 µM
CC(C)CCC[C@@H](C)[C@H]1CC[C@H]2[C@@H]3CC=C4C[C@@H](O)CC[C@]4(C)[C@H]3CC[C@]12C [cholesterol],response in control dCyFIRscreen profiles,[2],Neither of these ligands elicited responses
COc1ccc2[nH]cc(CCNC(C)=O)c2c1 [melatonin],"active cell pool, fraction of cell-sorting events for the 300-plex",[1],1.0%
lysophosphatidic acid [LPA],"activity at S1PR2 in words (mode of action, potency range)",S1PR2,micromolar interactions; also recorded: higher EC50 values compared to LPAR1
same,"activity at S1PR1 in words (mode of action, potency range)",S1PR1,higher EC50 values compared to LPAR1
CCCCCC(O)CC(=O)O (centres unmarked) [3-hydroxyoctanoic acid],fold higher EC50 at HCAR3 observed by Colosimo et al. versus this study,HCAR3; 304 μM versus 24 μM,12.6 fold
same,EC50,HCAR3,24 µM
"NCCc1ccccc1 [PEA, phenethylamine]","activity at ADRA2B in words (mode of action, potency range)",ADRA2B,micromolar
